Measured values reported in ChEMBL document CHEMBL1250543, “Potential application of thymidylate kinase in nucleoside analogue activation in Plasmodium falciparum” (Bioorg Med Chem, 2010).
pEC50: −log10 of the molar value.

Tests used:
Plasmodium falciparum [1] = assay: Antimalarial activity against Plasmodium falciparum 3D7 at 100 uM by SYBR green assay; assay type: functional; details: read-out: GI
Plasmodium falciparum [2] = assay: Antimalarial activity against Plasmodium falciparum 3D7 after 48 hrs by SYBR green assay; assay type: functional, organism-based; details: 3D7, 48 h

pEC50 (Plasmodium falciparum [2])	SMILES	inhibition of growth at 100 µM (Plasmodium falciparum [1]) [%]
4.10	CCOC(=O)[C@H](NP(=O)(OC[C@H]1O[C@@H](n2cc(C)c(=O)[nH]c2=O)C[C@@H]1N=[N+]=[N-])Oc1ccccc1)C(C)C (stereo partly specified)	69
4.17	CCOC(=O)[C@H](NP(=O)(OC[C@H]1O[C@H](n2cc(C)c(=O)[nH]c2=O)C[C@@H]1N=[N+]=[N-])Oc1ccccc1)C(C)C (stereo partly specified)	78
< 4.00	CCOC(=O)[C@H](NP(=O)(OC[C@@H]1C=C[C@H](n2cc(C)c(=O)[nH]c2=O)O1)Oc1ccccc1)C(C)C (stereo partly specified)	18

The remaining lines, values behind:

SMILES	pEC50 (Plasmodium falciparum [2])	inhibition of growth at 100 µM (Plasmodium falciparum [1]) [%]
Cc1cn([C@H]2C[C@H](N=[N+]=[N-])[C@@H](CO)O2)c(=O)[nH]c1=O [ZIDOVUDINE]	< 4.00	0
Cc1cn([C@@H]2C[C@H](N=[N+]=[N-])[C@@H](CO)O2)c(=O)[nH]c1=O	< 4.00	0
CCOC(=O)[C@H](NP(=O)(OC[C@H]1O[C@@H](n2cnc3c(=O)[nH]c(N)nc32)C[C@@H]1N=[N+]=[N-])Oc1ccccc1)C(C)C (stereo partly specified)	4.18	80
COC(=O)[C@@H](C)NP(=O)(OC[C@H]1O[C@@H](n2cc(C)c(=O)[nH]c2=O)C[C@@H]1N=[N+]=[N-])Oc1ccccc1 (stereo partly specified)	3.92	35
COC(=O)[C@@H](C)NP(=O)(OC[C@@H]1C=C[C@H](n2cc(C)c(=O)[nH]c2=O)O1)Oc1ccccc1 (stereo partly specified)	< 4.00	9
